pEC50: −log10 of the molar value.
Assay: Inhibition of erythropoietin-stimulated STAT5 expressed in human U2OS cells

- pEC50: 7.40
Compound: Cc1cc(Nc2nc(N[C@@H](C)c3ncc(F)cn3)c(C#N)nc2C)[nH]n1 [(S)-3-(1-(5-fluoropyrimidin-2-yl)ethylamino)-6-methyl-5-(5-methyl-1H-pyrazol-3-ylamino)pyrazine-2-carbonitrile]

Reference: BindingDB's records for doi:10.1016/j.bmcl.2009.10.054 (AstraZeneca, 2009)
